Earlier results on 1 compound are cited in patent publication US8153594B2, “Tacrolimus standard and methods of using same” (Siemens Healthcare Diagnostics Inc., priority 2006, dated 2012).

Regarding `C=CC[C@@H]1/C=C(\C)C[C@H](C)C[C@H](OC)[C@H]2O[C@@](O)(C(=O)C(=O)N3CCCC[C@H]3C(=O)O[C@H](/C(C)=C/[C@@H]3CC[C@@H](O)[C@H](OC)C3)[C@H](C)[C@@H](O)CC1=O)[C@H](C)C[C@@H]2OC` [tacrolimus, Tacrolimus], the Solubility in water entry is recorded as “insoluble in water”.
